{"source": "ChEMBL document CHEMBL1154264", "about": "“Evaluation of the flavonoid oroxylin A as an inhibitor of P-glycoprotein-mediated cellular efflux” (J Nat Prod, 2009)", "key": {"NCI/ADR-RES [1]": {"tested_on": "NCI/ADR-RES", "test": "Potentiation of paclitaxel-induced cytotoxicity against P-gp expressing human NCI/ADR-RES cells assessed as reduction of paclitaxel CC50 at 10 uM after 3 days by MTT assay", "type": "functional"}, "[2]": {"biological_target": "T1, ATP-dependent translocase ABCB1 (Homo sapiens, UniProt P08183)", "T1 sequence (P08183 whole entry)": "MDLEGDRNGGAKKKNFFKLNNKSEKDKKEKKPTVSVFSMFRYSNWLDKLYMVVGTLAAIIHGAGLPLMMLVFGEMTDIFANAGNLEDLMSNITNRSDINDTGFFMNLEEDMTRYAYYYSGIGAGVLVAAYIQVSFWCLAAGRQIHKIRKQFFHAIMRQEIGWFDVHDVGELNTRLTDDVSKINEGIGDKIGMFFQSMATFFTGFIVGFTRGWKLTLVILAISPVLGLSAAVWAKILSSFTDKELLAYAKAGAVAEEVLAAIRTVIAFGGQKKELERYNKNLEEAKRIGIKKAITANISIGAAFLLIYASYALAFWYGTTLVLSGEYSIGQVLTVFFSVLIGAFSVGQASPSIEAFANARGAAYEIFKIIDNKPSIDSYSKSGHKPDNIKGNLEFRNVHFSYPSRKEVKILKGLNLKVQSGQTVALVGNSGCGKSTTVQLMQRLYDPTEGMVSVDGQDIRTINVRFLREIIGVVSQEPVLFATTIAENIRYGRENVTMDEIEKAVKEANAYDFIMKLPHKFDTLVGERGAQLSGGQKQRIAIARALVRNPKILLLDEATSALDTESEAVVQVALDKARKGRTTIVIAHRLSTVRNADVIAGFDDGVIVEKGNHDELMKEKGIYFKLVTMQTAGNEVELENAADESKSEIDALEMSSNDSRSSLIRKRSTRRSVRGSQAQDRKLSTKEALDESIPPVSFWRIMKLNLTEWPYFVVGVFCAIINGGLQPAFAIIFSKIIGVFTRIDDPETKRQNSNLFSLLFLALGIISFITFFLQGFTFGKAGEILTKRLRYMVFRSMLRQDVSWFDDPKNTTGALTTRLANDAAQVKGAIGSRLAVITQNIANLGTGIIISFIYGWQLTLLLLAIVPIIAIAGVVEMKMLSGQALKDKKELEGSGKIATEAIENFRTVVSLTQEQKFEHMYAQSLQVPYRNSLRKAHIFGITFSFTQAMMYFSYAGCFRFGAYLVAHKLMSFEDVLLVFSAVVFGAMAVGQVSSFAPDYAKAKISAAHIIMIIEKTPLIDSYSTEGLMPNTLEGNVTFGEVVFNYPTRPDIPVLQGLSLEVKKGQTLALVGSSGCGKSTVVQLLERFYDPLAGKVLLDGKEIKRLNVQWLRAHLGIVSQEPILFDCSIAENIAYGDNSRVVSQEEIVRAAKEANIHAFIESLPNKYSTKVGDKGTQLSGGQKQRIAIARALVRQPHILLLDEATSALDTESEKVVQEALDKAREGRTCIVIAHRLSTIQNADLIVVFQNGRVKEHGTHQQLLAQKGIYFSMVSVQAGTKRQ", "test": "Inhibition of P-glycoprotein-mediated drug efflux in human NCI/ADR-RES cells assessed as paclitaxel accumulation after 30 mins by HPLC", "type": "cell-based", "conditions": "0.5 h"}, "NCI/ADR-RES [3]": {"tested_on": "NCI/ADR-RES", "test": "Cytotoxicity against human NCI/ADR-RES cells at 10 uM after 3 days by MTT assay", "type": "functional, cell-based"}, "NCI/ADR-RES [4]": {"tested_on": "NCI/ADR-RES", "test": "Potentiation of vinblastine-induced cytotoxicity against P-gp expressing human NCI/ADR-RES cells assessed as reduction of vinblastine CC50 at 10 uM after 3 days by MTT assay", "type": "functional"}, "[5]": {"biological_target": "T1, ATP-dependent translocase ABCB1", "test": "Inhibition of P-glycoprotein-mediated drug efflux in human NCI/ADR-RES cells assessed as calcein AM accumulation after 30 mins by fluorescence spectrophotometry", "type": "cell-based", "conditions": "0.5 h"}}, "note": "Active and inactive are the calls of the source. No cut-off for these calls is given here."}
{"smiles": "COc1c(O)cc2oc(-c3ccccc3)cc(=O)c2c1O", "note": "[OROXYLIN A]", "values": [{"measurement": "fold change (FC)", "setting": "NCI/ADR-RES [1]", "value": 5}, {"measurement": "inhibition (INH)", "setting": "[2]", "value": "Dose-dependent effect"}, {"measurement": "Activity", "setting": "NCI/ADR-RES [3]", "value": "inactive"}, {"measurement": "fold change (FC)", "setting": "NCI/ADR-RES [4]", "value": 5}, {"measurement": "inhibition (INH)", "setting": "[5]", "value": "Dose-dependent effect"}]}
